Here are results for 5 molecules from patent US10168342B2, “Lipid probes and uses thereof” (THE SCRIPPS RESEARCH INSTITUTE, priority 2015, dated 2019).

Each structure is given as a SMILES string. Read-outs that look alike come from different tables or passages of the source.

In test [1] the target is T1, AEA-DA lipid probe targets in Neuro2a cells (Mus musculus, UniProt Q3TZX3).
T1 sequence (Q3TZX3 1-320): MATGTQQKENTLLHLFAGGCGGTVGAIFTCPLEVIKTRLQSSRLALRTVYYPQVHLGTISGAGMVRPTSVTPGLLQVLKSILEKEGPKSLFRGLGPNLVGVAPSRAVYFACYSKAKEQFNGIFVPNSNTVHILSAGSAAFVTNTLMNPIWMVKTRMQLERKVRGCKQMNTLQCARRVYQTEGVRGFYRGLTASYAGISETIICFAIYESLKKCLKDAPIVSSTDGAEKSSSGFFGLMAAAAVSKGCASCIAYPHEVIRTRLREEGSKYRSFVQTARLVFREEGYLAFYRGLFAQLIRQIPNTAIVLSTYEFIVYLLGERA

Test [2] concerns the target AEA-DA lipid probe targets in Neuro2a cells (Mus musculus, UniProt P08113).
Test [3] concerns the target AEA-DA lipid probe targets in Neuro2a cells (Mus musculus, UniProt Q8BUV8).
The target in test [4] is T2, AEA-DA lipid probe targets in Neuro2a cells (Mus musculus, UniProt Q9CQM2).
T2 sequence (Q9CQM2 1-212): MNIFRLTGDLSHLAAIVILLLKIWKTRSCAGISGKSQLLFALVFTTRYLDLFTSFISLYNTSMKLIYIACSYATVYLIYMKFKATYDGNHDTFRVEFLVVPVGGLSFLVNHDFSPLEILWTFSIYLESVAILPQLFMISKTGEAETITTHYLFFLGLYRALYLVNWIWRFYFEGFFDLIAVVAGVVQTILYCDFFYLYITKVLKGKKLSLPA

In test [5] the target is AEA-DA lipid probe targets in Neuro2a cells (Mus musculus, UniProt Q9DBG6).
Chain of AEA-DA lipid probe targets in Neuro2a cells (Mus musculus, UniProt Q9DBG6) (Q9DBG6 23-631): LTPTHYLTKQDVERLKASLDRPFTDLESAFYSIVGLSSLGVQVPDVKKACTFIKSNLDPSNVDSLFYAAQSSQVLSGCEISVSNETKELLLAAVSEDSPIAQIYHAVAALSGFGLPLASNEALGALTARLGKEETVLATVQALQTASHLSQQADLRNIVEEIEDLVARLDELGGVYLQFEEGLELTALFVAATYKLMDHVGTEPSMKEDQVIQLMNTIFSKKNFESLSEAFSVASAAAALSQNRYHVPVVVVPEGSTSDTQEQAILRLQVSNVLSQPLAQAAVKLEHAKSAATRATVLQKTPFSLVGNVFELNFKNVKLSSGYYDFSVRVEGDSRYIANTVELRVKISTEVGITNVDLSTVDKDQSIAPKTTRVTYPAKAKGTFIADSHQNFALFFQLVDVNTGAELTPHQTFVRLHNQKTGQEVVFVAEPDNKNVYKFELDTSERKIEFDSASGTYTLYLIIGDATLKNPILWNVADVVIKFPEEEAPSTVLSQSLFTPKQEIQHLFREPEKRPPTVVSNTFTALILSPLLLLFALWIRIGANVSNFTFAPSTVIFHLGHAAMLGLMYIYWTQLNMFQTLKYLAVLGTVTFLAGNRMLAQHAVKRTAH
The target in test [6] is AEA-DA lipid probe targets in Neuro2a cells (Mus musculus, UniProt Q9QUJ7).
Chain of AEA-DA lipid probe targets in Neuro2a cells (Mus musculus, UniProt Q9QUJ7) (Q9QUJ7 whole entry): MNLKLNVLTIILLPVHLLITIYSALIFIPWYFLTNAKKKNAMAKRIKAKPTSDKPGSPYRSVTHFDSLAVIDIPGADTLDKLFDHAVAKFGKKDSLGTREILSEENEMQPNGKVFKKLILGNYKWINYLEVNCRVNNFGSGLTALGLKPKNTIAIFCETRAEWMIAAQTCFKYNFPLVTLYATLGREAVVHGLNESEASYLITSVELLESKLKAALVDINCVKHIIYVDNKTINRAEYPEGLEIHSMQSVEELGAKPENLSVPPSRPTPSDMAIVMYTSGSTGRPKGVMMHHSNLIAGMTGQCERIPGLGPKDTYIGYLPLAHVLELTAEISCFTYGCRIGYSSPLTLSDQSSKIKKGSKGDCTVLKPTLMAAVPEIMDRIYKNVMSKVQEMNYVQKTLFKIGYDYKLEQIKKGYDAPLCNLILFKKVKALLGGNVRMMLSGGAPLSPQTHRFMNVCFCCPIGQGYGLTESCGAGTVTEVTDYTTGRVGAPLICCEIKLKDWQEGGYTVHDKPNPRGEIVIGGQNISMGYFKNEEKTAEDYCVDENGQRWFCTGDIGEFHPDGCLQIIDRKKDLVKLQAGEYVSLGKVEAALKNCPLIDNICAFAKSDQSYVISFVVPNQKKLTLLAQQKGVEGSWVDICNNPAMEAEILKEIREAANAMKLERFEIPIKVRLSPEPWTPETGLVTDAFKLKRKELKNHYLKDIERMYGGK
Test [7] deals with T3, AEA-DA lipid probe targets in Neuro2a cells (Mus musculus, UniProt Q91ZV0).
T3 sequence (Q91ZV0 23-1396): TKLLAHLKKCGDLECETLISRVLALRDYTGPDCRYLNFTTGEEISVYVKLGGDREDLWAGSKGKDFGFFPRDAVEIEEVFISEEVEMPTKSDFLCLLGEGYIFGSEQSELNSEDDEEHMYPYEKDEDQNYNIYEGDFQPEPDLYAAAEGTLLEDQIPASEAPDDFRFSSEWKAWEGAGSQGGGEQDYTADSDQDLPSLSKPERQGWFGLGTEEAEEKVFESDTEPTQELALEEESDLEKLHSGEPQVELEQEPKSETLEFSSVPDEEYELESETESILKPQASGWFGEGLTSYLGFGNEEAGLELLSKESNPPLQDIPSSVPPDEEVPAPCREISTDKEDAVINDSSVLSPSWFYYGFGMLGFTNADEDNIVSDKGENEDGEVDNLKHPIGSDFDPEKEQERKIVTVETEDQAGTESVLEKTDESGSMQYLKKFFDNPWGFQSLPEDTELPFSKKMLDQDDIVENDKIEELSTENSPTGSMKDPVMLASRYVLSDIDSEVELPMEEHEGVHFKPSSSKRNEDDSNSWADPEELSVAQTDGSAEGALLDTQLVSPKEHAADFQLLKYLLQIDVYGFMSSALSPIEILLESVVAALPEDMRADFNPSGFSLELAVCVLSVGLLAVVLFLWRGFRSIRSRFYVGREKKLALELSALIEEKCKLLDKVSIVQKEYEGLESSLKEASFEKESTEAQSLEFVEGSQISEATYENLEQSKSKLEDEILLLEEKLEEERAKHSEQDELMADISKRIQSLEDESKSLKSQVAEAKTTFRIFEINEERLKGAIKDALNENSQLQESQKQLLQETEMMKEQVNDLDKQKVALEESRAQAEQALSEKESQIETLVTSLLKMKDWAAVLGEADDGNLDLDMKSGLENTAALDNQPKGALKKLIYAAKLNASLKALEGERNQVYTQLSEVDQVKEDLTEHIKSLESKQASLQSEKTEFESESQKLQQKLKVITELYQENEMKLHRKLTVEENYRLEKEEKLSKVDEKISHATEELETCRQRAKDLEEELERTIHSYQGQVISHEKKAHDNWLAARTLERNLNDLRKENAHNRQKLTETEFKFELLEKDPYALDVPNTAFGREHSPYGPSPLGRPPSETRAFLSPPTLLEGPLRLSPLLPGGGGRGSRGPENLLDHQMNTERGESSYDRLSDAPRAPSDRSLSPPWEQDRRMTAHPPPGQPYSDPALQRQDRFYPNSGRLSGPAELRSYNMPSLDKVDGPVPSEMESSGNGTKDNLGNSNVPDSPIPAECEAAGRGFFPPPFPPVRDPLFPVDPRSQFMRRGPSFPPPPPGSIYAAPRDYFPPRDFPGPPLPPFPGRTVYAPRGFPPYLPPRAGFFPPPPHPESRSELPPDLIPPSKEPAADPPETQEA

The target in test [8] is T4, AEA-DA lipid probe targets in Neuro2a cells (Mus musculus, UniProt Q61712).
T4 sequence (Q61712 44-552): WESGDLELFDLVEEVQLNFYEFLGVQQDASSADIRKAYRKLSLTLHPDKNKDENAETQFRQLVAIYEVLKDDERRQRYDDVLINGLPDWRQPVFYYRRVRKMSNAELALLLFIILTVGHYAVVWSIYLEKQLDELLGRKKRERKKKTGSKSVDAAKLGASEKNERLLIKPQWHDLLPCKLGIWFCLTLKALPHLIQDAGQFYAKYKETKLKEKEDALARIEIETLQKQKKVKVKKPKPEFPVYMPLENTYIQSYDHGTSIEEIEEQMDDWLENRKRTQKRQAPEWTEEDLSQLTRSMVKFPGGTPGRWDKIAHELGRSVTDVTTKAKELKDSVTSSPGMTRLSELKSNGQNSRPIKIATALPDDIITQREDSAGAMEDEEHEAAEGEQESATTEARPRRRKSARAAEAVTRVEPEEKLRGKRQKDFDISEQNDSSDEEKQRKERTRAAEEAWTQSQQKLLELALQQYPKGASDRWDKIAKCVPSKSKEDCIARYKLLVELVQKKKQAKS
The settings on record: for SILAC ratio, DNAJC1 (Q96KC8): Neuro2a cells, AEA-DA probe.

Chain of AEA-DA lipid probe targets in Neuro2a cells (Mus musculus, UniProt Q8BUV8) (Q8BUV8 34-551): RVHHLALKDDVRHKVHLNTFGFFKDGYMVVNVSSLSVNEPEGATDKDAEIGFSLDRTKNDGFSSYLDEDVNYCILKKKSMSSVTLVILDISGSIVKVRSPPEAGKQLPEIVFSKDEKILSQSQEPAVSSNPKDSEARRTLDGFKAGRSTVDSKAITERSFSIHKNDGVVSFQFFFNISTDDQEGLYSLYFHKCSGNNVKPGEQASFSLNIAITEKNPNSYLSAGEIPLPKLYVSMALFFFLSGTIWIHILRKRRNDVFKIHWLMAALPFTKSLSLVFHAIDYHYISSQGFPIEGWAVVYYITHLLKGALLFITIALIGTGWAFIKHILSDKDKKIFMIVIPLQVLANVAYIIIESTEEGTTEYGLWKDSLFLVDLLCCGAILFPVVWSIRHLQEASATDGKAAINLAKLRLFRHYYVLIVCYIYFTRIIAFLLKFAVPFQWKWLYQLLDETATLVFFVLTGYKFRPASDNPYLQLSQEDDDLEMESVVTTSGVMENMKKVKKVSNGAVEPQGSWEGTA
Chain of AEA-DA lipid probe targets in Neuro2a cells (Mus musculus, UniProt P08113) (P08113 22-802): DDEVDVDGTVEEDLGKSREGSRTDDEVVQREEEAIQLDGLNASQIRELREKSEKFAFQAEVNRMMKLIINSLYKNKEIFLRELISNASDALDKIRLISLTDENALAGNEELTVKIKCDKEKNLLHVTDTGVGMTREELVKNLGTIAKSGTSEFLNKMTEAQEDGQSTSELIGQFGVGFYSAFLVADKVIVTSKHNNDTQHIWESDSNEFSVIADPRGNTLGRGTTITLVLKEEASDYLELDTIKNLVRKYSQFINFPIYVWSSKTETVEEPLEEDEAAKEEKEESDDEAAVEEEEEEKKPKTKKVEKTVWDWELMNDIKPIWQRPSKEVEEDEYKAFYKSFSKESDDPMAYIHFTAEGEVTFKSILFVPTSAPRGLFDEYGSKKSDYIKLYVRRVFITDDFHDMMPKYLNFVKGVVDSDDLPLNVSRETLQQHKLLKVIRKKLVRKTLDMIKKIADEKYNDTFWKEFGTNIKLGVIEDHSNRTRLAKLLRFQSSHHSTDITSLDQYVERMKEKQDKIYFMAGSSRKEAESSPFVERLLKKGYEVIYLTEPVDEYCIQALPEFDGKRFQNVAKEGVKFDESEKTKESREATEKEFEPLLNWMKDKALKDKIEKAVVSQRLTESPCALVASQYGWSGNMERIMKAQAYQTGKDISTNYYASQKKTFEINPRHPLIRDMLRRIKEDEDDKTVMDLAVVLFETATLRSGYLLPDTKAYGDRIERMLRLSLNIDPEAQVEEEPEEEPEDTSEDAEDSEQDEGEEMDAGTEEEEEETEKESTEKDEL

For the molecule `CCCCC/C=C\C/C=C\C/C=C\C/C=C\CCCC(=O)NCCO` [AEA, anandamide, reference compound], the “SILAC ratio Slc25a33” value in test [1] (competitor 200 μM) was 1.3. In addition, the “SILAC ratio Hsp90b1” value in test [2] (competitor 200 μM) stood at 1.1. The “SILAC ratio, Gpr107” value in test [3] (competitor 200 μM) turned out to be 1.6. Also, the “SILAC ratio, Kdelr2” value in test [4] (competitor 200 μM) is 1.4. The “SILAC ratio Rpn2” value in test [5] (competitor 200 μM) is 1.3. In addition, the “SILAC ratio Acsl4” value in test [6] (competitor 200 μM) is given as 1.6. Besides, in test [7] (competitor 200 μM), the “SILAC ratio, Ctage5” value is given as 2.3. Moreover, in test [8] (competitor 200 μM), the “SILAC ratio, DNAJC1 (Q96KC8)” value is on record as 2.1 and the “SILAC ratio, Dnajc1” value amounted to 2.1.
Turning to `O=C(/C=C/c1cccnc1)NCCCCC1CCN(C(=O)c2ccccc2)CC1` [FK-866, reference compound], the “SILAC ratio Slc25a33” value in test [1] (competitor 25 μM) is on record as 1.2. In addition, the “SILAC ratio Hsp90b1” value in test [2] (competitor 25 μM) stood at 1.2. Also, in test [3] (competitor 25 μM), the “SILAC ratio, Gpr107” value is reported as 1.0. Moreover, the “SILAC ratio, Kdelr2” value in test [4] (competitor 25 μM) turned out to be 1.2. Besides, the “SILAC ratio Rpn2” value in test [5] (competitor 25 μM) turned out to be 1.1. For the same molecule, the “SILAC ratio Acsl4” value in test [6] (competitor 25 μM) was found to be 1.3. In test [7] (competitor 25 μM), the “SILAC ratio, Ctage5” value stood at 1.1. Also, in test [8] (competitor 25 μM), the “SILAC ratio, DNAJC1 (Q96KC8)” value is reported as 1.4 and the “SILAC ratio, Dnajc1” value came out at 1.4.
Turning to `CN1CCN(C(=O)c2c(-c3ccccc3)c3cc([N+](=O)[O-])ccc3n2C)CC1` [KML110, (1-Methyl-5-nitro-3-phenyl-1H-indol-2-yl)(4-methylpiperazin-1-yl)methanone], the “SILAC ratio Slc25a33” value in test [1] (competitor 25 μM) amounted to 1.4. The “SILAC ratio Hsp90b1” value in test [2] (competitor 25 μM) came out at 1.4. In addition, the “SILAC ratio, Gpr107” value in test [3] (competitor 25 μM) came out at 1.5. In addition, in test [4] (competitor 25 μM), the “SILAC ratio, Kdelr2” value was found to be 1.3. For the same molecule, the “SILAC ratio Rpn2” value in test [5] (competitor 25 μM) worked out at 1.2. The “SILAC ratio Acsl4” value in test [6] (competitor 25 μM) is listed as 1.3. The “SILAC ratio, Ctage5” value in test [7] (competitor 25 μM) is given as 1.4.
With `CN1CCN(C(=O)c2[nH]c3ccc([N+](=O)[O-])cc3c2-c2ccccc2)CC1` [MJN228, (4-Methylpiperazin-1-yl)(5-nitro-3-phenyl-1H-indol-2-yl)methanone], the “SILAC ratio Slc25a33” value in test [1] (competitor 10 μM) turned out to be 1.2; in test [1] (competitor 25 μM) it was 1.2; in test [1] (competitor 50 μM), 0.9; in test [1] (competitor 100 μM), 0.6. Moreover, the “SILAC ratio Hsp90b1” value stood at 1.3 in test [2] (competitor 10 μM), 1.3 in test [2] (competitor 25 μM), 1.5 in test [2] (competitor 50 μM) and 1.4 in test [2] (competitor 100 μM). Besides, the “SILAC ratio, Gpr107” value in test [3] (competitor 10 μM) came to 1.1; in test [3] (competitor 25 μM) it was 1.3; in test [3] (competitor 50 μM), 2.1; in test [3] (competitor 100 μM) it was 2.9. Further, the “SILAC ratio, Kdelr2” value turned out to be 1.2 in test [4] (competitor 10 μM), 1.2 in test [4] (competitor 25 μM), 1.3 in test [4] (competitor 50 μM) and 1.8 in test [4] (competitor 100 μM). Besides, the “SILAC ratio Rpn2” value is reported as 1.2 in test [5] (competitor 10 μM), 1.3 in test [5] (competitor 25 μM), 1.4 in test [5] (competitor 50 μM) and 1.7 in test [5] (competitor 100 μM). Also, the “SILAC ratio Acsl4” value in test [6] (competitor 10 μM) is reported as 1.2; in test [6] (competitor 25 μM), 1.4; in test [6] (competitor 50 μM) it was 1.6; in test [6] (competitor 100 μM), 1.7. In addition, the “SILAC ratio, Ctage5” value in test [7] (competitor 10 μM) is given as 1.1; in test [7] (competitor 25 μM), 1.3; in test [7] (competitor 50 μM), 1.5; in test [7] (competitor 100 μM), 1.7. For the same molecule, in test [8] (competitor 25 μM), the “SILAC ratio, DNAJC1 (Q96KC8)” value is on record as 1.6. For the same molecule, the “SILAC ratio, Dnajc1” value in test [8] (competitor 10 μM) amounted to 1.0; in test [8] (competitor 25 μM), 1.6; in test [8] (competitor 50 μM), 1.5.
On to `C=CCN(C)CCCCCCOc1ccc(C(=O)c2ccc(Br)cc2)c(F)c1` [Ro 48-8071, reference compound], for which the “SILAC ratio Slc25a33” value in test [1] (competitor 25 μM) is 1.0. In test [2] (competitor 25 μM), the “SILAC ratio Hsp90b1” value turned out to be 0.9. Besides, the “SILAC ratio, Gpr107” value in test [3] (competitor 25 μM) is 1.8. For the same molecule, the “SILAC ratio, Kdelr2” value in test [4] (competitor 25 μM) worked out at 0.9. Besides, in test [5] (competitor 25 μM), the “SILAC ratio Rpn2” value is recorded as 1.0. In addition, the “SILAC ratio Acsl4” value in test [6] (competitor 25 μM) was found to be 1.1. Further, the “SILAC ratio, Ctage5” value in test [7] (competitor 25 μM) is listed as 1.0. Also, in test [8] (competitor 25 μM), the “SILAC ratio, DNAJC1 (Q96KC8)” value is given as 1.2 and the “SILAC ratio, Dnajc1” value came out at 1.2.
